Measured values as given in patent publication US20250388605A1, “HETEROBIFUNCTIONAL COMPOUNDS AND METHODS OF TREATING DISEASE” (Halda Therapeutics OpCo, Inc., priority 2022, published 2025).

How the values were obtained:
[1] = system: T-Rex 293 cell line SC3 cells lacking increased expression of androgen receptor protein; experiment: Cellular growth inhibition, T-Rex 293 SC3 cells without doxycycline (no increased androgen receptor expression), CellTiter-Glo; assay type: cell-based; conditions: T-Rex 293 SC3 cells not exposed to doxycycline (no increased androgen receptor expression), 72 hours
How it was run: (§1)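 Doxycycline (10 ng/mL) was either included or omitted to toggle wild-type androgen receptor expression in SC3 cells, a T-Rex 293 clone, grown in stripped-serum, phenol red-free medium. After 72 hours with compound, viable cells were quantified by CellTiter-Glo 2.0.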

T47D cells = experiment: Cellular Growth Inhibition Assay for T47D Cells (CellTiter-Glo); assay type: cell-based, human; conditions: 72 hours
How it was run: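 GI50 values derive from four-parameter regression of CellTiter-Glo 2.0 luminescence, using zero luminescence as baseline. Human breast cancer T47D cells (3000/well; DMEM, 10% FBS, 0.2 units/mL insulin) were exposed for 72 h to compound dilutions at 0.5% DMSO, with dosing starting 24 h after seeding.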

[2] = system: T-Rex 293 cell line SC cells lacking increased expression of progesterone receptor isoform B protein; experiment: Cellular growth inhibition assay, T-Rex 293 SC cells not exposed to doxycycline (no increased progesterone receptor isoform B expression), CellTiter-Glo; assay type: cell-based; conditions: T-Rex 293 SC cells without doxycycline (no increased PR isoform B), 72 hours
[3] = system: T-Rex 293 cell line SC3 cells having increased expression of androgen receptor protein due to exposure to doxycycline; experiment: Cellular growth inhibition, T-Rex 293 SC3 cells with doxycycline (increased androgen receptor expression), CellTiter-Glo; assay type: cell-based; conditions: T-Rex 293 SC3 cells with 10 ng/mL doxycycline (increased androgen receptor expression), 72 hours, CellTiter-Glo 2.0
How it was run: as §1

| GI50 (T47D cells; Homo sapiens) | GI50 (T47D cells) | SMILES | GI50 [1] | GI50 [2] | GI50 [3] |
| --- | --- | --- | --- | --- | --- |
| < 500 nM |  | Cn1cc(-c2cc(C(C)(C)O)ccc2Oc2cccc(N3CC(N4CCN(c5ncc(C(=O)N[C@H]6C(C)(C)[C@H](Oc7ccc(C#N)c(Cl)c7)C6(C)C)cn5)CC4)C3)c2F)c2cc[nH]c2c1=O [Compound I-92, N-((1r, 3r)-3-(3-chloro-4-cyanophenoxy)-2,2,4,4-tetramethylcyclobutyl)-2-(4-(1-(2-fluoro-3-(4-(2-hydroxypropan-2-yl)-2-(6-methyl-7-oxo-6,7-dihydro-1H-pyrrolo[2,3-c]pyridin-4-yl)phenoxy)phenyl)azetidin-3-yl)piperazin-1-yl)pyrimidine-5-carboxamide] | < 500 nM | < 500 nM | < 500 nM |
|  | 500 to 1500 nM | Cn1cc(-c2cc(C(C)(C)O)ccc2Oc2cccc(N3CC(OC4CCN(c5ncc(C(=O)N[C@H]6C(C)(C)[C@H](Oc7ccc(C#N)c(Cl)c7)C6(C)C)cn5)CC4)C3)c2F)c2cc[nH]c2c1=O [Compound I-190] | 500 to 1500 nM | < 500 nM | < 500 nM |
| 500 to 1500 nM |  | Cn1cc(-c2cc(C(C)(C)O)ccc2Oc2ccc(OCC3CCN(c4ncc(C(=O)N[C@H]5C(C)(C)[C@H](Oc6ccc(C#N)c(Cl)c6)C5(C)C)cn4)CC3)cc2)c2cc[nH]c2c1=O [Compound I-202] | 500 to 1500 nM | 500 to 1500 nM | < 500 nM |
| < 500 nM |  | CCS(=O)(=O)Nc1ccc(Oc2cccc(OCCOC3CCN(c4ncc(C(=O)N[C@H]5C(C)(C)[C@H](Oc6ccc(C#N)c(Cl)c6)C5(C)C)cn4)CC3)c2)c(-c2cn(C)c(=O)c3[nH]ccc23)c1 [Compound I-6] | < 500 nM | < 500 nM | < 500 nM |
